Measured values taken from patent US20170112940A1, “Modified Collagen Hybridizing Peptides And Uses Thereof” (University of Utah Research Foundation, priority 2015, published 2017).

How the values were obtained:
[1] = Melting temperature (melting curve) of the peptides in 1× PBS; assay type: physicochemical; conditions: FIG. 1
Method: The sample concentration tested is 200 uM. 7 is Ac-GPO-GPO-GPO-GPO-GPO-GPO-GPO (This is positive control). 7-1azGly is Ac-GPO-GPO-GPO-azGlyPO-GPO-GPO-GPO. 7-2azGly is Ac-GPO-GPO-azGlyPO-GPO-azGlyPO-GPO-GPO. Melting Temperature of 7 is 54° C. Melting Temperature of 7-1azGly is 65° C. Melting Temperature of 7-2azGly is 77° C.

gelatin = test: Gelatin binding: peptide remaining on crosslinked gelatin film after binding and washing; conditions: FIG. 3
Method: 10: 10 μM added to crosslinked gelatin gel. […] 7 is CF-GGG-GPO-GPO-GPO-GPO-GPO-GPO-GPO (positive control). […] 7-2azGly is CF-GGG-GPO-GPO-azGlyPO-GPO-azGlyPO-GPO-GPO. Random9 is Scramble sequence of CF-GGG-(GPO)9 The sequence is CF-GGG-PGO-GPG-POP-OGO-GOP-PGO-OPG-GOO-PPG. (negative control).

Denatured Collagen = test: Fluorescent staining of SDS-PAGE, denatured collagen lanes; assay type: binding; conditions: SDS-PAGE stained with 35 μM peptide, 5 ug and 10 ug denatured collagen (lanes 3 and 4), FIG. 4
Method: (§1) FIGS. 4A and 4B show A) Fluorescent image of SDS-PAGE stained with 35 μM of CFG3(GPO)3AzGPO(GPO)3; B) SDS-PAGE stained with Commassie Blue. Lane 1: MW marker, Lane 2: 50 ug BSA, Lane 3: 5 ug Denatured Collagen (col), Lane 4: 10 ug Denatured Collagen (col). Commasie blue (4B) stains collagen (Lanes 3 and 4) as well as BSA (lane 2).

BSA = BSA (Bos taurus, UniProt P02769); test: Fluorescent staining of SDS-PAGE, BSA lane; assay type: binding; conditions: SDS-PAGE stained with 35 μM peptide, 50 ug BSA (lane 2), FIG. 4
Method: as §1

[2] = listed as CFG3(GPO)3AzGPO(GPO)3

Sequence of BSA (P02769 25-607): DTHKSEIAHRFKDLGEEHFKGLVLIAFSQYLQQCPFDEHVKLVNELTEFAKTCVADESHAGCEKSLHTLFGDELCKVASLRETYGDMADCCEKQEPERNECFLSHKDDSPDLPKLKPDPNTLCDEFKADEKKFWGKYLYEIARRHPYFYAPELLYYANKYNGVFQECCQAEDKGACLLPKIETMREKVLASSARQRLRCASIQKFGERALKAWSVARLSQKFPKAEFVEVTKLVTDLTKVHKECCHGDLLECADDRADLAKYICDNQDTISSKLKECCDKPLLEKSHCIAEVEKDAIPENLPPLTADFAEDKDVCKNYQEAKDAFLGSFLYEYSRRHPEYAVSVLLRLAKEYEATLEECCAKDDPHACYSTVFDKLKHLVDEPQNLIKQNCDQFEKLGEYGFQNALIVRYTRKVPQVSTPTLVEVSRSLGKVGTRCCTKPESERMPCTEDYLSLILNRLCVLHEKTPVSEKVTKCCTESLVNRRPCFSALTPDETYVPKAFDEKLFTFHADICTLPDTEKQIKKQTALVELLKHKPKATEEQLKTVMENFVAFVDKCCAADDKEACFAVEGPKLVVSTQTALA

| triple helical structure indicated by sigmoidal shape of the melting curve [1] | Substance | binding affinity to gelatin (comparison in words) (gelatin) | further results |
| --- | --- | --- | --- |
| has triple helical structure | Ac-GPO-GPO-GPO-azGlyPO-GPO-GPO-GPO [7-1azGly] | – | – |
| has triple helical structure | Ac-GPO-GPO-azGlyPO-GPO-azGlyPO-GPO-GPO [7-2azGly] | – | – |
| – | CF-GGG-GPO-GPO-GPO-azGlyPO-GPO-GPO-GPO [7-1azGly] | much higher than GPO7 | staining of / binding to denatured collagen (Denatured Collagen; listed as Aza-CHP): binds to denatured collagen; staining of / binding to denatured collagen (Denatured Collagen; [2]): stains only collagen; staining of / binding to denatured BSA (BSA; listed as Aza-CHP): does not bind to denatured BSA; staining of / binding to denatured BSA (BSA; [2]): almost no signal from lane 2 |
| – | CF-GGG-GPO-GPO-azGlyPO-GPO-azGlyPO-GPO-GPO [7-2azGly] | further increases the binding affinity to gelatin | – |
